Reference: ChEMBL document CHEMBL3044886, “Chemoselective synthesis, antiproliferative activities, and SAR study of 1H-pyrazol-5-yl-N,N-dimethylformamidines and pyrazolyl-2-azadienes” (2012)

Key:
Format in all cases: functional
[1] = system: Jurkat; assay: Growth inhibition of Homo sapiens (human) Jurkat cells after 72 hr by MTT assay
[2] = Growth inhibition of Homo sapiens (human) NPC-TW01 cells after 72 hr by MTT assay; conditions: NPC-TW01, 72 h
[3] = system: NCI-H226; assay: Growth inhibition of Homo sapiens (human) NCI-H226 cells after 72 hr by MTT assay; conditions: NCI-H226, 72 h

SMILES | GI50 [1] | GI50 [2] | GI50 [3]
Cc1ccc(-c2nn(-c3ccc(Br)cc3)c(N)c2C=O)cc1 | 34.4 µM | 28.2 µM | 8.5 µM
Cc1ccc(-c2nn(-c3ccc(Br)cc3)c(/N=C/N(C)C)c2C=O)cc1 | 6.7 µM | 6 µM | 8.2 µM
Cc1ccc(-c2cc(/N=C/N(C)C)n(-c3ccc(Br)cc3)n2)cc1 | > 100 µM | > 100 µM | 73.9 µM
Cc1ccc(-c2nn(-c3cccc(Cl)c3)c(N)c2C=O)cc1 | 86.3 µM | > 100 µM | 71.8 µM
Nc1cc(-c2ccc(Cl)cc2)nn1-c1ccc(Br)cc1 | 61.3 µM | 64.4 µM | 58.7 µM
CN(C)/C=N/c1cc(-c2ccc(Cl)cc2)nn1-c1ccc(Br)cc1 | 84.9 µM | 60.7 µM | 59.8 µM
Nc1cc(-c2ccccc2)nn1-c1ccccc1 | 83 µM | > 100 µM | 72.2 µM
Nc1c(C=O)c(-c2ccc(Cl)cc2)nn1-c1ccc(Br)cc1 | 90.7 µM | 59.7 µM | 49.1 µM
Nc1c(C=O)c(-c2ccc(Cl)cc2)nn1-c1cccc(Cl)c1 | 78.9 µM | > 100 µM | 79.7 µM
CN(C)/C=N/c1c(C=O)c(-c2ccccc2)nn1-c1ccccc1 | – | 9.3 µM | 31.4 µM
Cc1ccc(-c2cc(N)n(-c3ccc(Br)cc3)n2)cc1 | 45 µM | 80.2 µM | 54.3 µM
CN(C)/C=N/c1cc(-c2ccc(Cl)cc2)nn1-c1cccc(Cl)c1 | 74.5 µM | 92.7 µM | 75.6 µM
Cc1ccc(-c2cc(N)n(-c3cccc(Cl)c3)n2)cc1 | 56.6 µM | > 100 µM | 63.5 µM
Nc1cc(-c2ccc(Cl)cc2)nn1-c1cccc(Cl)c1 | > 100 µM | > 100 µM | 75.1 µM
Cc1ccc(-c2nn(-c3cccc(Cl)c3)c(/N=C/N(C)C)c2C=O)cc1 | 7.8 µM | 7.2 µM | 8.9 µM
CN(C)/C=N/c1cc(-c2ccccc2)nn1-c1ccccc1 | > 100 µM | > 100 µM | > 100 µM
CN(C)/C=N/c1c(C=O)c(-c2ccc(Cl)cc2)nn1-c1ccc(Br)cc1 | 38.9 µM | > 100 µM | 62.9 µM
Cc1ccc(-c2cc(/N=C/N(C)C)n(-c3cccc(Cl)c3)n2)cc1 | > 100 µM | > 100 µM | 80.9 µM
Nc1c(C=O)c(-c2ccccc2)nn1-c1ccccc1 | 87.3 µM | > 100 µM | > 100 µM
CN(C)/C=N/c1c(C=O)c(-c2ccc(Cl)cc2)nn1-c1cccc(Cl)c1 | 7.7 µM | 7.4 µM | 9.2 µM
